Test results taken from patent US7262212B2, “2,3-dihydro-6-nitroimidazo[2,1-b]oxazoles” (Otsuka Pharmaceutical Co., Ltd., priority 2002, dated 2007).
In brackets after ≈: the same amount, converted by molar mass.

Test system: Mycobacterium tuberculosis (M. tuberculosis H37Rv)
Test: Antimicrobial assay (agar dilution method), minimal inhibitory concentration
Type: cell-based
Details: 336 h, 7H11 agar medium, approximately 10^6 CFU/ml, 5 μl inoculated, 37° C. for 14 days

Structure (SMILES)	MIC
C[C@]1(CN2CCN(c3ccc(OC(F)(F)F)cc3)CC2)Cn2cc([N+](=O)[O-])nc2O1 [Example 397, (S)-2-[4-(4-trifluoromethoxyphenyl)-piperazin-1-ylmethyl]-2-methyl-6-nitro-2,3-dihydroimidazo[2,1-b]oxazole]	0.024 µg/mL (≈ 0.0562 µM)

Test system: not given
Test: not given
Details: not given

melting point	Structure (SMILES)
144 to 147 °C	COc1ccc(CN(C)C[C@@]2(C)Cn3cc([N+](=O)[O-])nc3O2)cc1
129 to 129.5 °C	CN(Cc1ccc(Cl)cc1)C[C@@]1(C)Cn2cc([N+](=O)[O-])nc2O1
174 to 175 °C	CN(C[C@@]1(C)Cn2cc([N+](=O)[O-])nc2O1)c1ccc(Cl)cc1
201 to 202.5 °C	CC1(CN2CCN(C(=O)NCc3ccc(C(F)(F)F)cc3)CC2)Cn2cc([N+](=O)[O-])nc2O1 (centres unmarked)
176.5 to 177.3 °C	CC(C)COC(=O)N1CCN(CC2(C)Cn3cc([N+](=O)[O-])nc3O2)CC1 (centres unmarked)
198.8 to 201.1 °C	CN(C(=O)OC(C)(C)C)C1CCN(CC2(C)Cn3cc([N+](=O)[O-])nc3O2)CC1 (centres unmarked)
179.5 to 182 °C	CC(C)(C)OC(=O)N1CCN(c2cccc(OC[C@@]3(C)Cn4cc([N+](=O)[O-])nc4O3)c2)CC1
111 to 112.5 °C	C[C@]1(CN2CCC(Cc3ccc(OC(F)(F)F)cc3)CC2)Cn2cc([N+](=O)[O-])nc2O1
156.2 to 158.5 °C	C[C@]1(CN2CCC(NC(=O)OCc3ccc(OC(F)(F)F)cc3)CC2)Cn2cc([N+](=O)[O-])nc2O1
212 to 214 °C (dec.)	CC1(CN2CCN(C(=O)Nc3ccc(Cl)c(Cl)c3)CC2)Cn2cc([N+](=O)[O-])nc2O1 (centres unmarked)
158.5 to 160.7 °C	CC(C)(C)OC(=O)NC1CCN(C[C@@]2(C)Cn3cc([N+](=O)[O-])nc3O2)CC1
116.2 to 116.6 °C	CNC(C1CCN(C(=O)OCc2ccc(Cl)cc2)CC1)[C@]1(C)Cn2cc([N+](=O)[O-])nc2O1 (some centres unmarked)
227.5 to 228.3 °C (dec.)	CC(C)(C)OC(=O)N1CCC(c2ccc(OC[C@@]3(C)Cn4cc([N+](=O)[O-])nc4O3)cc2)CC1
133.2 to 134.4 °C	CN(c1ccc(OC(F)(F)F)cc1)C1CCN(C[C@@]2(C)Cn3cc([N+](=O)[O-])nc3O2)CC1
138.7 to 139.2 °C	CN(C(=O)OCc1ccccc1)C1CCN(CC2(C)Cn3cc([N+](=O)[O-])nc3O2)CC1 (centres unmarked)
200 to 201 °C	C[C@]1(COC(=O)N(c2ccc(Cl)cc2)c2ccc(Cl)cc2)Cn2cc([N+](=O)[O-])nc2O1
213 to 214 °C	Cc1ccc(CC(=O)N2CCN(CC3(C)Cn4cc([N+](=O)[O-])nc4O3)CC2)cc1 (centres unmarked)
204 to 206 °C (dec.)	CC1(CN2CCN(C(=S)Nc3ccc(Cl)cc3)CC2)Cn2cc([N+](=O)[O-])nc2O1 (centres unmarked)
109 to 110.5 °C	CC1(CN2CCC(Cc3ccc(Cl)cc3)CC2)Cn2cc([N+](=O)[O-])nc2O1 (centres unmarked)
98 to 101 °C	C[C@]1(CN2CCN(C(=O)NC3CCCCC3)CC2)Cn2cc([N+](=O)[O-])nc2O1
137 to 140 °C	C[C@]1(COC(=O)N2CCC(Nc3ccc(C(F)(F)F)cc3)CC2)Cn2cc([N+](=O)[O-])nc2O1
138 to 140 °C	CC1(COC(=O)N2CCN(c3ccc(OC(F)(F)F)cc3)CC2)Cn2cc([N+](=O)[O-])nc2O1 (centres unmarked)
182.5 to 183.4 °C	CCOC(=O)NCC1(C)Cn2cc([N+](=O)[O-])nc2O1 (centres unmarked)
142 to 145 °C	C[C@]1(CN2CCN(C(=O)CSc3ccc(Cl)cc3)CC2)Cn2cc([N+](=O)[O-])nc2O1
178.6 to 179.3 °C	C[C@]1(CN2CCN(N=C3CCCCC3)CC2)Cn2cc([N+](=O)[O-])nc2O1
130 to 133 °C	CC1(CCCN2CCN(C(=O)OCc3ccc(C(F)(F)F)cc3)CC2)Cn2cc([N+](=O)[O-])nc2O1 (centres unmarked)
189 to 191 °C (dec.)	COc1ccc(NC(=S)N2CCN(CC3(C)Cn4cc([N+](=O)[O-])nc4O3)CC2)cc1 (centres unmarked)

The remaining lines, values behind:

Structure (SMILES)	melting point
CC1(Cn2c(=O)n(-c3ccc(F)cc3)c3ccccc32)Cn2cc([N+](=O)[O-])nc2O1 (centres unmarked)	254.1 to 254.7 °C
CC1(CN2CCC(Cc3ccc(C(F)(F)F)cc3)CC2)Cn2cc([N+](=O)[O-])nc2O1 (centres unmarked)	125 to 126 °C
C[C@]1(CN2CCC(N3CCN(Cc4ccc(Cl)cc4)CC3)CC2)Cn2cc([N+](=O)[O-])nc2O1	148 to 149 °C
CC1(CN2CCN(C(=O)c3ccc(-c4ccccc4)cc3)CC2)Cn2cc([N+](=O)[O-])nc2O1 (centres unmarked)	116 to 118 °C
C[C@]1(CN2CCC(N3CCN(Cc4ccc(OC(F)(F)F)cc4)CC3)CC2)Cn2cc([N+](=O)[O-])nc2O1	142 to 143 °C
O=c1oc(-c2ccc(OC(F)(F)F)cc2)nn1CC1Cn2cc([N+](=O)[O-])nc2O1 (centres unmarked)	204 to 207 °C
O=C(CN1CCN(c2nc3ccccc3o2)CC1)N1CCC2(CC1)Cn1cc([N+](=O)[O-])nc1O2	260 to 263 °C (dec.)
O=C(Nc1ccc(N2CCOCC2)c(F)c1)N1CCC2(CC1)Cn1cc([N+](=O)[O-])nc1O2	240 to 245 °C (dec.)
O=[N+]([O-])c1cn2c(n1)O[C@@H](CN1CCN(c3ccc(C(F)(F)F)cc3)CC1)C2	175.8 to 176.6 °C
C[C@]1(CN2CCN(C(=O)N3CCC(c4ccc(C(F)(F)F)cc4)CC3)CC2)Cn2cc([N+](=O)[O-])nc2O1	179.1 to 181.9 °C
C[C@]1(CN2CCC(N3CCN(CC=Cc4ccc(OC(F)(F)F)cc4)CC3)CC2)Cn2cc([N+](=O)[O-])nc2O1	174 to 175 °C
CC1(CN2CCN(c3nc4ccccc4o3)CC2)Cn2cc([N+](=O)[O-])nc2O1 (centres unmarked)	228 to 229.5 °C
C[C@]1(CN2CCN(N=Cc3ccc(C(F)(F)F)cc3)CC2)Cn2cc([N+](=O)[O-])nc2O1 [Example 505]	188.4 to 191.2 °C
CC1(N2CCC(C(=O)c3ccc(OC(F)(F)F)cc3)CC2)Cn2cc([N+](=O)[O-])nc2O1 (centres unmarked)	165 to 167 °C
CC1(CN2CCN(C(=O)N3CCC(c4ccc(Cl)cc4)CC3)CC2)Cn2cc([N+](=O)[O-])nc2O1 (centres unmarked)	186 to 187 °C
O=C(Nc1ccc(OC(F)(F)F)cc1)N1CCC2(CC1)Cn1cc([N+](=O)[O-])nc1O2	231 to 233 °C
CC1(COc2ccc(C3CCN(Cc4ccc(OC(F)(F)F)cc4)CC3)cc2)Cn2cc([N+](=O)[O-])nc2O1 (centres unmarked)	160.6 to 161.1 °C
C[C@]1(CN2CCC(NCCc3ccc(C(F)(F)F)cc3)CC2)Cn2cc([N+](=O)[O-])nc2O1	80.7 to 84.2 °C
O=[N+]([O-])c1cn2c(n1)O[C@@H](CN1CCN(c3ccc(Cl)cc3)CC1)C2	183 to 183.5 °C
C[C@]1(CN2CCN(C3CCN(C(=O)c4ccc(OC(F)(F)F)cc4)CC3)CC2)Cn2cc([N+](=O)[O-])nc2O1	133 to 134 °C
CC1(CCN2CCN(Cc3ccc(-c4ccccc4)cc3)CC2)Cn2cc([N+](=O)[O-])nc2O1 (centres unmarked)	181 to 182 °C
CN(CCN1CCN(Cc2ccc(C(F)(F)F)cc2)CC1)C[C@@]1(C)Cn2cc([N+](=O)[O-])nc2O1	102 to 104.5 °C
CC1(COc2ccc(N3CCN(Cc4ccc(C(F)(F)F)cc4)CC3)cc2)Cn2cc([N+](=O)[O-])nc2O1 (centres unmarked)	171.8 to 173.1 °C
C[C@]1(CN2CCC(OCCc3ccc(C(F)(F)F)cc3)CC2)Cn2cc([N+](=O)[O-])nc2O1	84.6 to 86.8 °C

Test system: Mycobacterium tuberculosis (H37Rv strain)
Test: not given
Details: cited from earlier work

Structure (SMILES)	bactericidal action
CCC1Cn2cc([N+](=O)[O-])nc2O1 (centres unmarked) [CGI-17341]	has a bactericidal action

Test system: M. avium
Test: not given
Details: used at 250 μg/ml or less; cited from earlier work

Structure (SMILES)	activity
CCC1Cn2cc([N+](=O)[O-])nc2O1 (centres unmarked) [CGI-17341]	does not have the activity

Test system: M. intracellulare
Test: not given
Details: used at 250 μg/ml or less; cited from earlier work

Structure (SMILES)	activity
CCC1Cn2cc([N+](=O)[O-])nc2O1 (centres unmarked) [CGI-17341]	does not have the activity

Test system: M. fortuitum
Test: not given
Details: used at 250 μg/ml or less; cited from earlier work

Structure (SMILES)	activity
CCC1Cn2cc([N+](=O)[O-])nc2O1 (centres unmarked) [CGI-17341]	does not have the activity
